Experimental data taken from patent US8580733B2, “Site-specific monoconjugated insulinotropic GLP-1 peptides” (Bio-Ker SRL, priority 2008, dated 2013).
Ends that are not written are not given here.

Columns and labels:
[1] = biological target: T1, DPP-IV (Dipeptidyl peptidase IV from porcine kidney) (Sus scrofa, UniProt P22411); assay: In vitro stability to DPP-IV digestion; type: in vitro ADME; conditions: for Degradation % at 24 h: peptide 0.1 mg/ml in PBS
T1 construct: purchased Sigma; host or cells: porcine kidney (tissue-derived)
T1 sequence (P22411 whole entry): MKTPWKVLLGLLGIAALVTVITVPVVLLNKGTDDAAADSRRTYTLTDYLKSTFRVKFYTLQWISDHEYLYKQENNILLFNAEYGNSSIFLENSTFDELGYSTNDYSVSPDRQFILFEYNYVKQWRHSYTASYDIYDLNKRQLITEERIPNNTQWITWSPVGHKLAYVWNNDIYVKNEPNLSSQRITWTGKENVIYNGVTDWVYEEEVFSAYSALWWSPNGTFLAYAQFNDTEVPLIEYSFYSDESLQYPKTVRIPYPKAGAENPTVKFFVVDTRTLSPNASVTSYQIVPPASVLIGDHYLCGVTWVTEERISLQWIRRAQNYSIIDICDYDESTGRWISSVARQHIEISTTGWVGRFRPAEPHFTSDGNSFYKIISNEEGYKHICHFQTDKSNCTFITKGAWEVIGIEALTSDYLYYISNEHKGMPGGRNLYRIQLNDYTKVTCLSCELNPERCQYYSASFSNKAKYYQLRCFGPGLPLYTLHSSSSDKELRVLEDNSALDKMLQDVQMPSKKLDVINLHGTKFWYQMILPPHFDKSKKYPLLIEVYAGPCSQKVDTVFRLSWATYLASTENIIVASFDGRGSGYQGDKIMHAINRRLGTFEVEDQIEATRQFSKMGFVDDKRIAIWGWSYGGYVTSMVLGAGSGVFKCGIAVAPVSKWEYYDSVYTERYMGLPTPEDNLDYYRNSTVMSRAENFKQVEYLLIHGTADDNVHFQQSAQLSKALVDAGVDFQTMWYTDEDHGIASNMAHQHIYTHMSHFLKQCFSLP
Procedure: The enzymatic degradation was calculated from His-Ala title of each sample, as shown for example in FIG. 1

diabetic (db/db) mice = assay: Oral glucose tolerance test in diabetic mice; type: in vivo; conditions: for Tglu<100 mg/dl (time to lower the blood glucose level under 100 (±5) mg/dl) / Glumax (maximum blood glucose level) / HD% control (total hypoglycemic degree as percent of saline control): 100 μg/kg 30 min before oral glucose […]; for Glumax (maximum blood glucose level): first 180 min; for HD% control (total hypoglycemic degree as percent of saline control): AUC 0-180 min vs saline
Procedure: Food was withdrawn for an 18-h period prior to and for 3 hours after oral administration of a glucose solution (1.5 g/kg body weight); food was again […] 6 hours after glucose administration. 40 μg/ml of products to be tested and negative control (phosphate buffered saline) were administered by subcutaneous injection of a volume of 2.5 ml/kg body weight, 30 minutes prior glucose administration. Blood samples were collected from the tail vein of conscious mice before the injection and at 15, 30, 60, 120, 180, 240, 300, 1440 min post injection and glucose concentration was measured by gluco tester Ascensia Elite (Bayer).

Row | Molecule | Degradation % at 24 h ([1]; DPP-IV 5 U/ml, 37° C.) | Degradation % (at 8 h) ([1]; DPP-IV 5 U/ml, 37° C., at 8 h) | inactivation by cleavage of the N-terminal dipeptide ([1]; DPP-IV, after 8 hours at 37° C.) | final biological efficacy compared with exenatide (diabetic (db/db) mice) | Tglu<100 mg/dl (time to lower the blood glucose level under 100 (±5) mg/dl) (diabetic (db/db) mice) | Glumax (maximum blood glucose level) (diabetic (db/db) mice) | HD% control (total hypoglycemic degree as percent of saline control) (diabetic (db/db) mice)
1 | GLP-1-amide-Q17N/A24Q-PEG 20 kDa: Q17N/A24Q-GLP-1-amide monopegylated on glutamine 24 with 20 kDa m-PEG-amine by microbial transglutaminase (HAEGTFTSDVSSYLEGNAAKEFIQ(PEG 20 kDa)WLVKGRG-NH2; UniProt P01275 98-128, looked up, variant Q17N A24Q) | 41% | – | – | – | – | – | –
2 | CC[C@H](C)[C@H](NC(=O)[C@H](Cc1ccccc1)NC(=O)[C@H](CCC(=O)O)NC(=O)[C@H](CCCCN)NC(=O)[C@H](C)NC(=O)[C@H](C)NC(=O)[C@H](CCC(N)=O)NC(=O)CNC(=O)[C@H](CCC(=O)O)NC(=O)[C@H](CC(C)C)NC(=O)[C@H](Cc1ccc(O)cc1)NC(=O)[C@H](CO)NC(=O)[C@H](CO)NC(=O)[C@@H](NC(=O)[C@H](CC(=O)O)NC(=O)[C@H](CO)NC(=O)[C@@H](NC(=O)[C@H](Cc1ccccc1)NC(=O)[C@@H](NC(=O)CNC(=O)[C@H](CCC(=O)O)NC(=O)[C@H](C)NC(=O)[C@@H](N)Cc1c[nH]cn1)[C@@H](C)O)[C@@H](C)O)C(C)C)C(=O)N[C@@H](C)C(=O)N[C@@H](Cc1c[nH]c2ccccc12)C(=O)N[C@@H](CC(C)C)C(=O)N[C@H](C(=O)N[C@@H](CCCCN)C(=O)NCC(=O)N[C@@H](CCCNC(=N)N)C(N)=O)C(C)C [GLP-1-amide, GLP-1(7-36)-amide, reference compound] | – | 100 (at 8 h) % | completely inactivated | – | – | – | –
3 | HAEGTFTSDVSSYLEGNAAKEFIQWLVKGR-NH2 [GLP-1-amide-Q17N/A24Q] | 90% | – | – | – | – | – | –
4 | GLP-1-amide-Q17-PEG 30 kDa: GLP-1-amide monopegylated on glutamine 17 with 30 kDa m-PEG-amine by microbial transglutaminase | 25% | – | – | comparable or better than the one displayed by exenatide | 60 min | 167.7 mg/dL | 63.5%
5 | GLP-1-amide-Q17-PEG 20 kDa: GLP-1-amide monopegylated on glutamine 17 with 20 kDa m-PEG-amine by microbial transglutaminase | 37% | – | – | comparable or better than the one displayed by exenatide | 60 min | 213.9 mg/dL | 58.3%
